In brackets after ≈: the same amount, converted by molar mass. Where two headings read alike, the source gives them in different places.
How the values were obtained:
Experiment in all cases: MIC, other bacteria (Table 3)
S. aureus ATCC 29213 = format: cell-based
[1] = system: S. aureus ATCC 43300 (MRSA); format: cell-based; details: inoculum size 10^6 CFU/ml
VRSA 2441-T0041 = format: cell-based, S. aureus
VRSA 2441-T0044 = format: cell-based, S. aureus
MRSA 2441-05104 = format: cell-based, S. aureus; details: inoculum size 10^6 CFU/ml
MRSA 2441-05112 = format: cell-based, S. aureus; details: inoculum size 10^6 CFU/ml
MRSA 2441-05129 = format: cell-based, S. aureus; details: inoculum size 10^6 CFU/ml
MRSA 2441-05223 = format: cell-based, S. aureus; details: inoculum size 10^6 CFU/ml
MRSA 2441-05254 = format: cell-based, S. aureus; details: inoculum size 10^6 CFU/ml
MRSA 2441-05262 = format: cell-based, S. aureus; details: inoculum size 10^6 CFU/ml
[2] = system: S. epidermidis ATCC 12228; format: cell-based
MRSE 2442-05030 = format: cell-based, S. epidermidis; details: inoculum size 10^6 CFU/ml
MRSE 2442-05047 = format: cell-based, S. epidermidis; details: inoculum size 10^6 CFU/ml
MRSE 2442-05053 = format: cell-based, S. epidermidis; details: inoculum size 10^6 CFU/ml
MRSE 2442-05060 = format: cell-based, S. epidermidis; details: inoculum size 10^6 CFU/ml
MRSE 2442-05110 = format: cell-based, S. epidermidis; details: inoculum size 10^6 CFU/ml
MRSE 2442-05118 = format: cell-based, S. epidermidis; details: inoculum size 10^6 CFU/ml
E. faecalis ATCC 29212 = format: cell-based
[3] = system: E. faecalis ATCC 51299 (VRE); format: cell-based; details: low level VCM-resistant, Van B, inoculum size 10^6 CFU/ml
[4] = system: E. faecalis NCTC 12201 (VRE); format: cell-based; details: high level VCM-resistant, Van A, inoculum size 10^6 CFU/ml
E. faecium ATCC 49224 = format: cell-based; details: E. faecium ATCC 49224, GM-resistant, inoculum size 10^6 CFU/ml
[5] = system: E. faecium NCTC 12203 (VRE); format: cell-based; details: high level VCM-resistant, Van A, inoculum size 10^6 CFU/ml
E. coli ATCC 25922 = format: cell-based
K. pneumoniae ATCC 27736 = format: cell-based
P. mirabilis ATCC 4630 = format: cell-based
S. marsascens ATCC 14756 = format: cell-based; details: inoculum size 10^6 CFU/ml
P. aeruginosa ATCC 27853 = format: cell-based
[6] = Staphylococcus aureus, read-out: MIC
[7] = Staphylococcus epidermidis, read-out: MIC
[8] = Enterococcus faecalis, read-out: MIC
[9] = VRSA 2441-T0041, low level VCM-resistant, inoculum size 10^6 CFU/ml
[10] = VRSA 2441-T0044, low level VCM-resistant, inoculum size 10^6 CFU/ml

## CC1COc2c(N3CCN(C)CC3)c(F)cc3c(=O)c(C(=O)O)cn1c23 (stereo not drawn) [OFLX, ofloxacin, reference compound]
S. aureus ATCC 29213; Staphylococcus aureus, ATCC29213, inoculum size 10^6 CFU/ml, read-out: MIC
  MIC: 0.2 µg/mL (≈ 0.553 µM)
[1]; [6]
  MIC: 0.39 µg/mL (≈ 1.08 µM)
VRSA 2441-T0041; Staphylococcus aureus, VRSA
  MIC: 1.25 µg/mL (≈ 3.46 µM)
VRSA 2441-T0044; Staphylococcus aureus, VRSA
  MIC: 1.25 µg/mL (≈ 3.46 µM)
MRSA 2441-05104; [6]
  MIC: 25 µg/mL (≈ 69.2 µM)
MRSA 2441-05112; [6]
  MIC: 50 µg/mL (≈ 138 µM)
MRSA 2441-05129; [6]
  MIC: 1 µg/mL (≈ 2.77 µM)
MRSA 2441-05223; [6]
  MIC: 0.2 µg/mL (≈ 0.553 µM)
MRSA 2441-05254; [6]
  MIC: 50 µg/mL (≈ 138 µM)
MRSA 2441-05262; [6]
  MIC: 50 µg/mL (≈ 138 µM)
[2]; Staphylococcus epidermidis, ATCC12228, inoculum size 10^6 CFU/ml, read-out: MIC
  MIC: 0.2 µg/mL (≈ 0.553 µM)
MRSE 2442-05030; [7]
  MIC: 6.25 µg/mL (≈ 17.3 µM)
MRSE 2442-05047; [7]
  MIC: 6.25 µg/mL (≈ 17.3 µM)
MRSE 2442-05053; [7]
  MIC: 6.25 µg/mL (≈ 17.3 µM)
MRSE 2442-05060; [7]
  MIC: 6.25 µg/mL (≈ 17.3 µM)
MRSE 2442-05110; [7]
  MIC: 6.25 µg/mL (≈ 17.3 µM)
MRSE 2442-05118; [7]
  MIC: 6.25 µg/mL (≈ 17.3 µM)
E. faecalis ATCC 29212; Enterococcus faecalis, ATCC29212, inoculum size 10^6 CFU/ml, read-out: MIC
  MIC: 1.56 µg/mL (≈ 4.32 µM)
[3]; [8]
  MIC: 1.56 µg/mL (≈ 4.32 µM)
[4]; [8]
  MIC: 1.56 µg/mL (≈ 4.32 µM)
E. faecium ATCC 49224; Enterococcus faecium, ATCC49224, read-out: MIC
  MIC: 3.13 µg/mL (≈ 8.66 µM)
[5]; Enterococcus faecium, read-out: MIC
  MIC: 3.13 µg/mL (≈ 8.66 µM)
E. coli ATCC 25922; Escherichia coli, ATCC25922, inoculum size 10^6 CFU/ml, read-out: MIC
  MIC: 0.05 µg/mL (≈ 0.138 µM)
K. pneumoniae ATCC 27736; Klebsiella pneumoniae, ATCC27736, inoculum size 10^6 CFU/ml, read-out: MIC
  MIC: 0.2 µg/mL (≈ 0.553 µM)
P. mirabilis ATCC 4630; Proteus mirabilis, ATCC4630, inoculum size 10^6 CFU/ml, read-out: MIC
  MIC: 0.39 µg/mL (≈ 1.08 µM)
S. marsascens ATCC 14756; read-out: MIC
  MIC: 0.024 µg/mL (≈ 0.0664 µM)
P. aeruginosa ATCC 27853; Pseudomonas aeruginosa, ATCC27853, inoculum size 10^6 CFU/ml, read-out: MIC
  MIC: 3.13 µg/mL (≈ 8.66 µM)

## COc1cccc(OC)c1C(=O)N[C@@H]1C(=O)N2[C@@H]1SC(C)(C)[C@@H]2C(=O)O [DMPPC, reference compound]
S. aureus ATCC 29213; inoculum size 10^6 CFU/ml
  MIC: 1.56 µg/mL (≈ 4.1 µM)
[1]
  MIC: 3.13 µg/mL (≈ 8.23 µM)
VRSA 2441-T0041; [9]
  MIC: >400 µg/mL
VRSA 2441-T0044; [10]
  MIC: >400 µg/mL
MRSA 2441-05104
  MIC: 100 µg/mL (≈ 263 µM)
MRSA 2441-05112
  MIC: 400 µg/mL (≈ 1050 µM)
MRSA 2441-05129
  MIC: >400 µg/mL
MRSA 2441-05223
  MIC: 125 µg/mL (≈ 329 µM)
MRSA 2441-05254
  MIC: >400 µg/mL
MRSA 2441-05262
  MIC: >400 µg/mL
[2]; inoculum size 10^6 CFU/ml
  MIC: 1.56 µg/mL (≈ 4.1 µM)
MRSE 2442-05030
  MIC: 1.56 µg/mL (≈ 4.1 µM)
MRSE 2442-05047
  MIC: 400 µg/mL (≈ 1050 µM)
MRSE 2442-05053
  MIC: 3.13 µg/mL (≈ 8.23 µM)
MRSE 2442-05060
  MIC: 200 µg/mL (≈ 526 µM)
MRSE 2442-05110
  MIC: 3.13 µg/mL (≈ 8.23 µM)
MRSE 2442-05118
  MIC: 200 µg/mL (≈ 526 µM)
E. faecalis ATCC 29212; inoculum size 10^6 CFU/ml
  MIC: 25 µg/mL (≈ 65.7 µM)
[3]
  MIC: 50 µg/mL (≈ 131 µM)
[4]
  MIC: 100 µg/mL (≈ 263 µM)
E. faecium ATCC 49224
  MIC: >400 µg/mL
[5]
  MIC: >400 µg/mL
E. coli ATCC 25922; inoculum size 10^6 CFU/ml
  MIC: >400 µg/mL
K. pneumoniae ATCC 27736; inoculum size 10^6 CFU/ml
  MIC: >400 µg/mL
P. mirabilis ATCC 4630; inoculum size 10^6 CFU/ml
  MIC: >400 µg/mL
S. marsascens ATCC 14756
  MIC: >400 µg/mL
P. aeruginosa ATCC 27853; inoculum size 10^6 CFU/ml
  MIC: >400 µg/mL

## CN[C@H](CC(C)C)C(=O)N[C@H]1C(=O)N[C@@H](CC(N)=O)C(=O)N[C@H]2C(=O)N[C@H]3C(=O)N[C@H](C(=O)N[C@H](C(=O)O)c4cc(O)cc(O)c4-c4cc3ccc4O)[C@H](O)c3ccc(c(Cl)c3)Oc3cc2cc(c3O[C@@H]2O[C@H](CO)[C@@H](O)[C@H](O)[C@H]2O[C@H]2C[C@](C)(N)[C@H](O)[C@H](C)O2)Oc2ccc(cc2Cl)[C@H]1O [VCM, reference compound]
S. aureus ATCC 29213; inoculum size 10^6 CFU/ml
  MIC: 0.78 µg/mL (≈ 0.538 µM)
[1]
  MIC: 0.78 µg/mL (≈ 0.538 µM)
VRSA 2441-T0041; [9]
  MIC: 3.13 µg/mL (≈ 2.16 µM)
VRSA 2441-T0044; [10]
  MIC: 6.25 µg/mL (≈ 4.31 µM)
MRSA 2441-05104
  MIC: 0.78 µg/mL (≈ 0.538 µM)
MRSA 2441-05112
  MIC: 0.78 µg/mL (≈ 0.538 µM)
MRSA 2441-05129
  MIC: 0.78 µg/mL (≈ 0.538 µM)
MRSA 2441-05223
  MIC: 0.78 µg/mL (≈ 0.538 µM)
MRSA 2441-05254
  MIC: 1.56 µg/mL (≈ 1.08 µM)
MRSA 2441-05262
  MIC: 0.78 µg/mL (≈ 0.538 µM)
[2]; inoculum size 10^6 CFU/ml
  MIC: 1.56 µg/mL (≈ 1.08 µM)
MRSE 2442-05030
  MIC: 3.13 µg/mL (≈ 2.16 µM)
MRSE 2442-05047
  MIC: 1.56 µg/mL (≈ 1.08 µM)
MRSE 2442-05053
  MIC: 1.56 µg/mL (≈ 1.08 µM)
MRSE 2442-05060
  MIC: 1.56 µg/mL (≈ 1.08 µM)
MRSE 2442-05110
  MIC: 1.56 µg/mL (≈ 1.08 µM)
MRSE 2442-05118
  MIC: 1.56 µg/mL (≈ 1.08 µM)
E. faecalis ATCC 29212; inoculum size 10^6 CFU/ml
  MIC: 3.13 µg/mL (≈ 2.16 µM)
[3]
  MIC: 1.25 µg/mL (≈ 0.863 µM)
[4]
  MIC: >100 µg/mL
E. faecium ATCC 49224
  MIC: 3.13 µg/mL (≈ 2.16 µM)
[5]
  MIC: >100 µg/mL
E. coli ATCC 25922; inoculum size 10^6 CFU/ml
  MIC: >100 µg/mL
K. pneumoniae ATCC 27736; inoculum size 10^6 CFU/ml
  MIC: >100 µg/mL
P. mirabilis ATCC 4630; inoculum size 10^6 CFU/ml
  MIC: >100 µg/mL
S. marsascens ATCC 14756
  MIC: >100 µg/mL
P. aeruginosa ATCC 27853; inoculum size 10^6 CFU/ml
  MIC: >100 µg/mL

From US8884061B2, “Compositions and methods of use of electron transport system inhibitors” (priority 2006, dated 2014)
